Experimental data: article PMC9046208, “Foldamers reveal and validate therapeutic targets associated with toxic α-synuclein self-assembly” (Nature Communications, 2022)

Key:
αS = biological target: T1, αS (Homo sapiens, UniProt P37840); test: FP displacement titration of αS-SK-129F complex with SK-129; type: binding; details: displacement of SK-129F from αS-SK-129F complex by SK-129, n = 3
T1 construct: made in house; host or cells: Escherichia coli BL21(DE3), periplasm
Procedure: All Fluorescence Polarization (FP) experiments were conducted on a Varian Cary Eclipse fluorometer (Agilent, Santa Clara, CA) equipped with a polarizer. The stock solutions of αS, 1 mM or 100 μM in 1x PBS buffer, were serially added into a solution of 10 μM SK-129F (300 μL in 1x PBS buffer) while stirring in a quartz cuvette (Fireflysci, Staten Island, NY). All FP measurements were conducted in triplicates in 20 mM Tris, 100 mM NaCl, pH 7.2 at 20 °C. The excitation and emissions wavelengths were set at 490 nm and 520 nm, respectively. Each titration was equilibrated for five min before measurements were taken for the next addition of αS solution. The addition of αS solution was continuous until no more change in the FP signal was observed. Similar conditions were used for the titration of various αS mutants and Aβ42 peptide against SK-129F. […] The polarization of each point was calculated using Eq. 1:1 FP=I∥−I⊥/I∥+I⊥ Where I∥ is fluorescence intensity parallel to the excitation plane and I⊥ is fluorescence intensity perpendicular to the excitation plane. […]
affinity of SK-129 against αS. The fluorescence polarization titrations between SK129 and the preformed saturated complex of SK129 F-αS were conducted three times and each point in titrations was the average of three data points. […]

[1] = biological target: T2, αS2 seed-catalyzed aggregation (Homo sapiens, UniProt P37840, DEL15-23); test: Seed-catalyzed ThT aggregation assay (10% WT αS seeds), αS2; type: biochemical; details: αS2, equimolar ratio
T2 construct: made in house
Procedure: Seed-catalyzed αS aggregation assay was performed similarly to a previously described protocol. Briefly, 100 μM monomeric WT αS solution (200 μL, in 1x PBS buffer) was placed into a ThermoMixer (Eppendorf, Hamberg, Germany) and shook for five days at a rate of […] and 37 °C. The solution was sonicated for 10 min and used as αS seeds. The seed-catalyzed aggregation of WT αS/ αS variants was performed by adding αS seeds (10% seeds, αS in monomeric concentration, v/v) into 140 μL of fresh 100 μM WT αS/ αS variants solution and aggregation was started with constant shaking at a rate of […] and 37 °C. The aggregation of proteins was monitored at the indicated times (See the main manuscript) using the above-mentioned method.
The ThT aggregation assay for each protein (WT αS and αS variants) in the presence of SK-129 was carried out the above-mentioned method. SK-129 (from 10 mM stock solution in DMSO) was added at an equimolar ratio (1% DMSO, v/v) to the proteins at the start of the aggregation experiment. The concentration of DMSO was kept constant (1%, v/v) in protein (WT αS and αS variants), control, and protein+molecule solutions. The kinetic profiles of protein aggregation were processed using OriginPro software (Version 9.1). Kinetic curves were fit using a built-in sigmoidal fit in the OriginLab.

[2] = tested on: primary rat hippocampal neurons; test: LDH release assay, primary rat hippocampal neurons; type: cell-based; details: PD + SK-129 PMCA sample, 21 days; PD sample ~8-fold higher than control
Procedure: The rat embryos (both male and female) at embryonic day 18 were used to prepare the primary neurons according to previously published protocol. After removing all the meninges, the hippocampi were isolated from the fetal rat brain and kept in the dissection solution (1x HBSS, 10 mM HEPES buffer, 5 µg/mL Gentamicin, pH 7.3, Thermo Fisher Scientific, Waltham, MA). The hippocampi were minced and treated in the dissection solution containing 20 U/ml Papain (Worthington Biochemical Corp., Lakewood, NJ) and triturated in 50 µg/ml Dnase I (Sigma-Aldrich, St.Louis, MO). The isolated cells were plated on 1 mg/mL Poly-L-Lysine (Sigma-Aldrich, St.Louis, MO) coated μ-slide eight-well plate (Ibidi, Munich, Germany) at 200,000 cells/mL in neuron plating medium, which includes Minimum Essential Media (MEM)(Thermo Fisher Scientific, Waltham, MA) supplemented with 5% FBS (Thermo Fisher Scientific, Waltham, MA) and glucose (Sigma-Aldrich, St.Louis, MO). […]
The LDH assay was performed on the primary neurons treated with various conditions and incubated for 21 DIV. The release of LDH was measured using a Cytotox 96 Non-Radioactive Cytotoxicity Assay kit (Promega, Madison, WI) by following the instructions provided by the manufacturers. […] The absorbance of the media in the wells was measured at 490 nm using a 96-well plate reader.

Kd (αS): 720 ± 60 nM | effect on seed-catalyzed aggregation [1]: wholly suppressed
Structure (SMILES): COC(=O)c1cc(OCC(=O)O)c2cccc(NC(=O)c3cc(OC(C)C)c4cccc(NC(=O)c5cc(OCC(=O)O)c6cccc(NC(=O)c7cc(OC(C)C)c8cccc([N+](=O)[O-])c8n7)c6n5)c4n3)c2n1 [SK-129]
neurotoxicity (LDH release) [2]: did not observe any significant neurotoxicity
